According to US20250205253A1, “PHARMACEUTICAL COMPOSITION FOR PREVENTING OR TREATING BENIGN PROSTATIC HYPERPLASIA” (University-Industry Cooperation Group of Kyung Hee …, priority 2023, published 2025):

Tests used:
[1] = tested on: testosterone-induced BPH rat model; assay: PCNA IHC and qRT-PCR in prostate of rats with BPH; format: in vivo
Method: (§1) Total RNA was isolated using Easy-Blue® reagent (iNtRON Biotechnology, Inc., Gyeonggi, Korea) and transcribed into complementary DNA (cDNA) according to the manufacturer's instructions. Oligonucleotide primers (Table 1) were purchased from Bioneer Corporation (Daejeon, Korea). qRT-PCR was performed according to the known method.
(§2) Six-week-old male Sprague-Dawley rats (n=40; 200 +20 g) were purchased from Daehan Biolink Co. (Daejeon, Korea). The animals were randomly allocated, four rats in each cage, and housed in accordance with the guidelines for the care and use of laboratory animals adopted and promulgated by Sangji University according to the requirements established by the National Institutes of Health. All experimental protocols were approved by the Institutional Animal Care and Use Committee (IACUC) of Sangji University before the initiation of the study (IACUC Animal Approval Protocol #2018-18). The rats were acclimatized to laboratory conditions for one week before initiating the experiment.
The rats in the control group were incised and sutured without removing the testicles following anesthesia using zoletil 50 (intraperitoneal injection, 10 mg/kg). […] Twenty-four hours after the final administration, all rats were euthanized following anesthesia with zoletil 50 (i.p., 20 mg/kg). […]

[2] = tested on: testosterone-induced BPH rat model; assay: ROS assay on cells from rat prostate tissue; format: in vivo; details: dose-dependent, MitoQ 5 and 25 mg/kg/day; FIG. 5C
Text: as §2
(§3) The rats in the control group were incised and sutured without removing the testicles following anesthesia using zoletil 50 (intraperitoneal injection, 10 mg/kg). […] Twenty-four hours after the final administration, all rats were euthanized following anesthesia with zoletil 50 (i.p., 20 mg/kg). Blood samples were drawn through cardiac puncture, and serum was obtained via centrifugation and stored at −80° C.
After the male rats were euthanized, the prostate tissues were excised and treated with type I collagenase (Thermo Fisher Scientific, MA, USA) to isolate the cells. […] The cells were incubated for 30 minutes at 37° C. and detected using a Muse® Cell Analyzer (Merck, Darmstadt, Germany).

[3] = target: T1, AR (PDB ID: 2AMA) (Homo sapiens, UniProt P10275); assay: Docking simulation (AutoDock Vina v1.1.2) on AR
T1 sequence (P10275 664-920 limits assumed): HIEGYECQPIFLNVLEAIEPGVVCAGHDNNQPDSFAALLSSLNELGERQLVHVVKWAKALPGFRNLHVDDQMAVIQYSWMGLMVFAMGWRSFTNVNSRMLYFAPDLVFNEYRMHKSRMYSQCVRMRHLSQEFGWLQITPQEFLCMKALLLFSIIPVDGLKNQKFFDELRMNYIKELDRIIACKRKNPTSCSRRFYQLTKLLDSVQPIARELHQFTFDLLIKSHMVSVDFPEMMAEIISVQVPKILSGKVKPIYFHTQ

[4] = tested on: testosterone-induced BPH rat model; assay: Serum DHT and testosterone measurement (ELISA) in rats with BPH; format: in vivo
Text: as §2, §3
The serum DHT and testosterone levels were quantified using commercial ELISA kits (Cusabio, TX, USA). The assays were performed according to the manufacturer's instructions.

[5] = tested on: siRNA-transfected RWPE-1 cells; assay: siRNA transfection (NLRP3 or AR knockdown) with qRT-PCR in RWPE-1 cells; format: cell-based, human; details: DHT stimulation, with or without 100 μM MitoQ
Method: as §1
The RWPE-1 cells were transfected with siRNA (Bioneer Corporation) or pmaxGFP™ vector using a 4D-Nucleofector™ system (Lonza, Basel, Switzerland). The following siRNA nucleotide sequences were used: NLRP3 siRNA, […]=tt(1-AS) (SEQ ID NO.: 39) and […]=tt (1-AA) (SEQ ID NO.: 40) and AR siRNA, […]=tt (6-AS) (forward) (SEQ ID NO.: 41) and […]=tt (6-AA) (reverse) (SEQ ID NO.: 42). After four hours of incubation, the cells were treated in the presence or absence of MitoQ 100 μM. The effect of NLRP3 or AR knockdown was detected using qRT-PCR.

[6] = tested on: DHT-stimulated RWPE-1 cells; assay: ATP determination assay in DHT-stimulated RWPE-1 cells; format: cell-based, human; details: DHT-stimulated RWPE-1, MitoQ 25, 50, 100 μM, dose-dependent; FIG. 2F

mitoquinone
cellular proliferation inhibiting effect compared to Saw ([1]; MitoQ 25 mg/kg/day vs Saw 100 mg/kg/day): superior | overexpression of PCNA protein and mRNA ([1]; MitoQ 5, 25 mg/kg/day, Saw 100 mg/kg/day p.o., FIGS. 4C, 4E, 4F): clearly suppressed | intracellular ROS generation in prostate cells [2]: significantly suppressed | difference between the affinity values of DHT and MitoQ for AR [3]: ~1 kcal/mol | serum DHT overproduction ([4]; FIG. 7A): significantly suppressed | circulating (serum) testosterone level ([4]; MitoQ 25 mg/kg, Saw 100 mg/kg/day, FIG. 7E): significantly reduced | AR level (mRNA) in NLRP3 siRNA-transfected cells ([5]; FIG. 3D): notably downregulated | NLRP3 level (mRNA) in AR siRNA-transfected cells ([5]; FIG. 3E): significantly suppressed | ATP level [6]: significantly reduced
